Source: patent US4393228A, “Epoxysuccinic acid derivatives” (Taisho Pharmaceutical Co., Ltd., priority 1977, dated 1983)
Where a name gives a salt, the structure may show the parent alone.

What follows are compounds tested against T1, papain (Carica papaya, UniProt P00784) (assay: Papain inhibitory activity (milk casein digestion)). Details: papain 80 μg/ml 0.5 ml, cysteine, pH 6.8, 1% milk casein, 40° C., 10 minutes.
T1 construct: purchased Sigma Chem. Co
T1 sequence (P00784 134-345): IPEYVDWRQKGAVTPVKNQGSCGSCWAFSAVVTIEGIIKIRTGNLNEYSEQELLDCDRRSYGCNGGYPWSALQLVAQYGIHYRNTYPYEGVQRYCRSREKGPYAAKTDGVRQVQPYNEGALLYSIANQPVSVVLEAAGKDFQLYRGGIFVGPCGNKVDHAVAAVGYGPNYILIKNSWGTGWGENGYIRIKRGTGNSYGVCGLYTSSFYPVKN
Type: biochemical
Description: Papain inhibitory activity of the compounds of this invention was assayed as follows: To 0.5 ml of a solution of papain (80 μg/ml, Sigma Chem. Co., 2x cry.), were added 0.25 ml of 40 mM cysteine dissolved in 20 mM disodium ethylenediamine tetraacetic acid solution adjusted pH to 6.8 with sodium hydroxide and 0.25 ml of 33 mM phosphate buffer (pH 6.8) with or without inhibitor. After incubation at 40° C. for 15 minutes, the resulting mixture was added to 5 ml of 1% milk casein solution in the same buffer as described above, and further incubated at 40° C. for 10 minutes. Then the mixture was mixed with 5 ml of 0.44 M trichloroacetic acid solution and followed by filtration with a sheet of Toyo filter paper No. 4. The extinction of the filtrate was read at 280 nm. The percent inhibition was calculated from the formula, 100 x (B-A)/B; wherein B stands for the absorbance without inhibitor and A for the absorbance with inhibitor. The compound Nos. in Table 1 are as defined in Examples as described hereinafter.
For O=C(OC1CC2C=CC1C2)C1OC1C(=O)OC1CC2C=CC1C2 (stereo not shown) [EP-57, dinorbor-5-en-2-yl epoxysuccinate], the “ID50 (amount of inhibitor for 50% inhibition)” value was 0.26 γ. With O=C(OCc1cccc2c(Br)cccc12)[C@@H]1O[C@H]1C(=O)OCc1cccc2c(Br)cccc12 (relative stereo) [EP-85, di-5'-bromo-1'-naphthylmethyl epoxysuccinate] the “ID50 (amount of inhibitor for 50% inhibition)” value was 1.56 γ. For CCOC(=O)C1OC1C(=O)N[C@@H](CC(N)=O)C(=O)OCc1ccccc1 (stereo partly drawn) [EP-194, N-(3-ethoxycarbonyloxirane-2-carbonyl)-L-asparagine benzyl ester], the “ID50 (amount of inhibitor for 50% inhibition)” value was 22.60 γ. O=C(OC1C2CC3CC(C2)CC1C3)[C@@H]1O[C@H]1C(=O)OC1C2CC3CC(C2)CC1C3 (relative stereo) [EP-37, di-2-adamantyl epoxysuccinate] was tested, and the “ID50 (amount of inhibitor for 50% inhibition)” value was 0.22 γ. With CCOC(=O)C1OC1C(=O)N1CCC[C@H]1C(=O)OCc1ccccc1 (stereo partly drawn) [EP-152, N-(3-ethoxycarbonyloxirane-2-carbonyl)-L-proline benzyl ester] the “ID50 (amount of inhibitor for 50% inhibition)” value was 48.20 γ. C[C@H]1CC[C@@H](OC(=O)[C@@H]2O[C@H]2C(=O)O)CC1 (relative stereo) [EP-18, 4'-cis-methylcyclohexyl potassium epoxysuccinate] was tested, and the “ID50 (amount of inhibitor for 50% inhibition)” value was 0.08 γ. O=C(O)[C@@H]1O[C@H]1C(=O)O[C@@H]1CCCC[C@H]1Cl (relative stereo) [EP-8, 2'-trans-chlorocyclohexyl potassium epoxysuccinate] was tested, and the “ID50 (amount of inhibitor for 50% inhibition)” value was 0.07 γ. O=C(N[C@@H](Cc1ccc(O)cc1)C(=O)OCc1ccccc1)C1OC1C(=O)OCC1CC=CCC1 (stereo partly drawn) [EP-211, N-[3-(3'-cyclohexen-1-yl)-methoxycarbonyloxirane-2-carbonyl]-L-tyrosine benzyl ester] was tested, and the “ID50 (amount of inhibitor for 50% inhibition)” value was 0.61 γ. With O=C(OCc1ccco1)[C@@H]1O[C@H]1C(=O)OCc1ccco1 (relative stereo) [EP-77, di-2-furanmethyl epoxysuccinate] the “ID50 (amount of inhibitor for 50% inhibition)” value was 0.77 γ. For O=CNCCCC[C@H](NC(=O)C1OC1C(=O)OCc1ccccc1)C(=O)OCc1ccccc1 (stereo partly shown) [EP-171], the “ID50 (amount of inhibitor for 50% inhibition)” value was 5.80 γ. O=C(O)[C@@H]1O[C@H]1C(=O)OCC12CC3CC(CC(C3)C1)C2 (relative stereo) [EP-48, 1-adamantanemethyl potassium epoxysuccinate] was tested, and the “ID50 (amount of inhibitor for 50% inhibition)” value was 0.08 γ. In the case of CC(C)(C)OC(=O)[C@H](Cc1ccccc1)NC(=O)C1OC1C(=O)OCC1CCCO1 (stereo partly drawn) [EP-218, N-[3-tetrahydrofurfuryloxycarbonyloxirane-2-carbonyl]-L-phenylalanine t-butyl ester], the “ID50 (amount of inhibitor for 50% inhibition)” value is reported as 1.65 γ. With O=C(OCC1CCCCC1)[C@@H]1O[C@H]1C(=O)OCC1CCCCC1 (relative stereo) [EP-41, dicyclohexanemethyl epoxysuccinate] the “ID50 (amount of inhibitor for 50% inhibition)” value was 0.27 γ. In the case of CCCCOC(=O)C1OC1C(=O)N[C@@H](CCCNC(=O)OCc1ccccc1)C(=O)OCc1ccccc1 (stereo partly drawn) [EP-183, N^α -(3-n-buthoxycarbonyloxirane-2-carbonyl)-N^δ -carbobenzoxy-L-ornithine benzyl ester], the “ID50 (amount of inhibitor for 50% inhibition)” value is reported as 4.46 γ. With O=C(O)[C@@H]1O[C@H]1C(=O)OCCCC1CCCC1 (relative stereo) [EP-64, 3-cyclopentanepropyl potassium epoxysuccinate] the “ID50 (amount of inhibitor for 50% inhibition)” value was 0.10 γ. CCOC(=O)C1OC1C(=O)N[C@H](C(=O)OCc1ccccc1)C(C)C (stereo partly drawn) [EP-158, N-(3-ethoxycarbonyloxirane-2-carbonyl)-L-valine benzyl ester] was tested, and the “ID50 (amount of inhibitor for 50% inhibition)” value was 3.47 γ. For Cc1ccc(COC(=O)C2OC2C(=O)N[C@@H](CCCCNC(=O)OCc2ccccc2)C(=O)OCc2ccccc2)cc1 (stereo partly drawn) [EP-181, N^α -(3-p-methylbenzyloxycarbonyloxirane-2-carbonyl)-N^ε -carbobenzoxy-L-lysine benzyl ester], the “ID50 (amount of inhibitor for 50% inhibition)” value was 6.59 γ. With N=C(NCCC[C@H](NC(=O)C1OC1C(=O)OCc1ccccc1)C(=O)OCc1ccccc1)N[N+](=O)[O-] (stereo partly drawn) [EP-178, N-(3-benzyloxycarbonyloxirane-2-carbonyl)-N^G -nitro-L-arginine benzyl ester] the “ID50 (amount of inhibitor for 50% inhibition)” value was 4.63 γ. For CCOC(=O)[C@H](CC(C)C)NC(=O)C1OC1C(=O)OC (stereo partly drawn) [EP-166, N-(3-methoxycarbonyloxirane-2-carbonyl)-L-leucine ethyl ester], the “ID50 (amount of inhibitor for 50% inhibition)” value was 0.67 γ. CCOC(=O)[C@H](Cc1ccccc1)NC(=O)C1OC1C(=O)OCc1ccccc1Cl (stereo partly drawn) [EP-160, N-(3-o-chlorobenzyloxycarbonyloxirane-2-carbonyl)-L-phenylalanine ethyl ester] was tested, and the “ID50 (amount of inhibitor for 50% inhibition)” value was 0.30 γ. In the case of CCOC(=O)[C@H](Cc1ccccc1)NC(=O)C1OC1C(=O)OC1C2CC3CC(C2)CC1C3 (stereo partly drawn) [EP-210, N-[3-(2'-adanatyloxy)-carbonyloxirane-2-carbonyl]-L-phenyl alanine ethyl ester], the “ID50 (amount of inhibitor for 50% inhibition)” value is reported as 1.12 γ. In the case of O=C(O)C1OC1C(=O)OCC1C=CCC1 (stereo not shown) [EP-72, 2-cyclopentenemethyl potassium epoxysuccinate], the “ID50 (amount of inhibitor for 50% inhibition)” value is reported as 0.08 γ. In the case of O=C(OCC=Cc1ccccc1)[C@H]1O[C@@H]1C(=O)OCC=Cc1ccccc1 (relative stereo) [EP-133, di-3'-phenyl-2'-propenyl epoxysuccinate], the “ID50 (amount of inhibitor for 50% inhibition)” value is reported as 2.81 γ. For COC(=O)[C@H](C)NC(=O)C1OC1C(=O)O[C@H]1CC[C@H](C)CC1 (stereo partly drawn) [EP-215, N-[3-(4'-trans-methylcyclohexyloxy)-carbonyloxirane-2-carbonyl]-L-alanine methyl ester], the “ID50 (amount of inhibitor for 50% inhibition)” value was 3.55 γ. In the case of O=C(OCc1ccccc1I)[C@@H]1O[C@H]1C(=O)OCc1ccccc1I (relative stereo) [EP-105, di-o-iodobenzyl epoxysuccinate], the “ID50 (amount of inhibitor for 50% inhibition)” value is reported as 0.40 γ. For Cc1cc(C)cc(COC(=O)[C@@H]2O[C@H]2C(=O)O)c1 (relative stereo) [EP-94, 3',5'-dimethylbenzyl potassium epoxysuccinate], the “ID50 (amount of inhibitor for 50% inhibition)” value was 0.27 γ. In the case of O=C(OCc1ccccc1F)[C@H]1O[C@@H]1C(=O)OCc1ccccc1F (relative stereo) [EP-123, di-o-fluorobenzyl epoxysuccinate], the “ID50 (amount of inhibitor for 50% inhibition)” value is reported as 0.30 γ. In the case of C=CCOC(=O)[C@H]1O[C@@H]1C(=O)O (relative stereo) [EP-140, allyl potassium epoxysuccinate], the “ID50 (amount of inhibitor for 50% inhibition)” value is reported as 0.92 γ. For O=C(N[C@@H](CSCc1ccccc1)C(=O)OCc1ccccc1)C1OC1C(=O)OCc1ccccc1 (stereo partly drawn) [EP-191, N-(3-benzyloxycarbonyloxirane-2-carbonyl)-S-benzyl-L-cysteine benzyl ester], the “ID50 (amount of inhibitor for 50% inhibition)” value was 5.51 γ. In the case of Cc1ccccc1COC(=O)[C@@H]1O[C@H]1C(=O)OCc1ccccc1C (relative stereo) [EP-91, di-o-methylbenzyl epoxysuccinate], the “ID50 (amount of inhibitor for 50% inhibition)” value is reported as 0.35 γ. In the case of O=C(O)[C@@H]1O[C@H]1C(=O)O[C@@H]1CCC[C@H]1Br (relative stereo) [EP-34, 2'-trans-bromocyclopentyl potassium epoxysuccinate], the “ID50 (amount of inhibitor for 50% inhibition)” value is reported as 0.07 γ. In the case of O=C(NCCC[C@H](NC(=O)C1OC1C(=O)O)C(=O)OCc1ccccc1)OCc1ccccc1 (stereo partly drawn) [EP-196, N^α -(3-carboxyoxiane-2-carbonyl)-N^δ -carbobenzoxy-L-ornithine benzyl ester potassium salt], the “ID50 (amount of inhibitor for 50% inhibition)” value is reported as 0.11 γ. For CC1(C)C2CCC1(C)C(OC(=O)C1OC1C(=O)O)C2 (stereo not shown) [EP-54, bornyl potassium epoxysuccinate], the “ID50 (amount of inhibitor for 50% inhibition)” value was 0.09 γ. O=C(O)C1OC1C(=O)OC1CCC(Br)C(Cl)C1 (stereo not drawn) [EP-22, 3'-cis-chloro-4'-trans-bromocyclohexyl potassium epoxysuccinate] was tested, and the “ID50 (amount of inhibitor for 50% inhibition)” value was 0.12 γ. In the case of CCOC(=O)C1OC1C(=O)N[C@@H](CC(C)C)C(=O)OCC (stereo partly drawn) [EP-146, N-(3-ethoxycarbonyloxirane-2-carbonyl)-L-leucine ethyl ester], the “ID50 (amount of inhibitor for 50% inhibition)” value is reported as 0.39 γ. For COc1ccc(COC(=O)[C@@H]2O[C@H]2C(=O)OCc2ccc(OC)cc2)cc1 (relative stereo) [EP-101, di-p-methoxybenzyl epoxysuccinate], the “ID50 (amount of inhibitor for 50% inhibition)” value was 1.51 γ. O=C(O)C1OC1C(=O)OC1CCC(Cl)C1 (stereo not drawn) [EP-30, 3'-cis-chlorocyclopentyl potassium epoxysuccinate] was tested, and the “ID50 (amount of inhibitor for 50% inhibition)” value was 0.07 γ. In the case of CC(C)OC(=O)C1OC1C(=O)N[C@@H](CCCCNC(=O)OCc1ccccc1)C(=O)OCc1ccccc1 (stereo partly drawn) [EP-180, N^α -(3-iso-propyloxycarbonyloxirane-2-carbonyl)-N^ε -carbobenzoxy-L-lysine benzyl ester], the “ID50 (amount of inhibitor for 50% inhibition)” value is reported as 9.76 γ. With O=C(OCC1CC1)[C@@H]1O[C@H]1C(=O)OCC1CC1 (relative stereo) [EP-39, dicyclopropanemethyl epoxysuccinate] the “ID50 (amount of inhibitor for 50% inhibition)” value was 4.39 γ. With Cc1ccc(COC(=O)[C@@H]2O[C@H]2C(=O)OCc2ccc(C)cc2)cc1 (relative stereo) [EP-89, di-p-methylbenzyl epoxysuccinate] the “ID50 (amount of inhibitor for 50% inhibition)” value was 1.39 γ.
